Measured values taken from patent publication US20250333394A1, “Tiparp Inhibitor Compounds” (AbbVie Inc., priority 2024, published 2025).
pIC50: −log10 of the molar value.

Legend:
PARP1 GST = PARP1 GST (Homo sapiens (Human), UniProt P09874); assay: TR-FRET binding assay, PARP1; conditions: Probe 2, 2 hours incubation
How it was run: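 Serially diluted compounds, final 30 μM down to 0.5 nM, incubated 2 h at ambient temperature with GST-tagged protein/probe mix plus 1 nM Tb-anti-GST antibody. Buffer: 50 mM Tris-HCl pH 8.0, 5 mM MgCl2, 5 μM ZnCl2, 1 mM DTT, 0.15% BSA, 0.01% Triton X-100. Binding read as TR-FRET ratio.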

MC-38 (Ker) tumors = assay: MC-38 (Ker) syngeneic model efficacy; type: in vivo, mouse; conditions: PO once daily up to 21 days, C57BL/6 mice
Protocol: (§1) The murine cell line MC-38 derived from C57BL6 murine colon adenocarcinoma cells was obtained from Kerafast (Boston, MA, USA). A suspension of 2.5×10^5 cells in culture medium mixed with Matrigel® (Corning Life Sciences, Lowell, MA, USA; 1:1, volume:volume) was injected subcutaneously in the right hind flank of female C57BL/6 mice to generate tumor formation. Treatment started when the size of the flank tumors was approximately 120 mm^3. Vehicle and four different doses of Example 1 were administered once daily to each of eight mice at each dose level for up to 21 days. Each administration consisted of a single 0.2 mL oral (PO) dose in a vehicle formulation (10% ethanol, 30% PEG300, and 60% PHOSAL® 50 PG).

IFNβ = assay: Tumor selective induction of IFNβ in MC-38 (Ker) syngeneic model; type: in vivo, mouse; conditions: 3 hours after last dose, PO once daily for 2 days
Protocol: as §1, with “C57BL/6” for “C57BL6”, “500” for “120”, “three” for “four”, “four to five” for “eight”, “2” for “up to 21”, “PO” for “oral (PO)”
Blood and tumors were collected 3 hours after the last dose. Blood was transferred to microfuge tubes containing E DTA, centrifuged at 2000×g for 8 minutes at 4° C., and the upper plasma layer was transferred to new tubes and frozen at −80° C. Tumors were weighed and 200 to 500 mg of tumor tissue was transferred to microfuge tubes, which were then centrifuged at 15000×g for 10 minutes at 4° C. The supernatant was transferred to a fresh 96 well plate. […] The concentration of IFNβ in the thawed plasma and tumor fluid was determined using a Milliplex MAP mouse IFNβ assay (EMD Millipore, Burlington, MA, USA).

NCI-H1373 tumors = assay: NCI-H1373 xenograft tumor model efficacy; type: in vivo, mouse; conditions: PO BID for 14 days, SCID-beige mice
Protocol: The human xenograft line NCI-H1373 was obtained from ATCC (American Type Culture Collection, Manassas, Virginia, USA). A suspension of 5×10^6 cells in culture medium mixed with Matrigel® (Corning Life Sciences, Lowell, MA, USA; 1:1, volume:volume) was injected subcutaneously in the right hind flank of female SCID-beige mice to generate tumor formation. Treatment started when the size of the flank tumors was approximately 120 mm^3. The TIPARP inhibition activity of Example 1 was evaluated by dosing five separate treatment groups with vehicle and four different doses of Example 1, administered twice a day (BID) for 14 days. Each administration consisted of a 0.2 mL PO dose in a vehicle formulation (10% ethanol, 30% PEG300, and 60% PHOSAL® 50).

Sequence of PARP1 GST (P09874 whole entry): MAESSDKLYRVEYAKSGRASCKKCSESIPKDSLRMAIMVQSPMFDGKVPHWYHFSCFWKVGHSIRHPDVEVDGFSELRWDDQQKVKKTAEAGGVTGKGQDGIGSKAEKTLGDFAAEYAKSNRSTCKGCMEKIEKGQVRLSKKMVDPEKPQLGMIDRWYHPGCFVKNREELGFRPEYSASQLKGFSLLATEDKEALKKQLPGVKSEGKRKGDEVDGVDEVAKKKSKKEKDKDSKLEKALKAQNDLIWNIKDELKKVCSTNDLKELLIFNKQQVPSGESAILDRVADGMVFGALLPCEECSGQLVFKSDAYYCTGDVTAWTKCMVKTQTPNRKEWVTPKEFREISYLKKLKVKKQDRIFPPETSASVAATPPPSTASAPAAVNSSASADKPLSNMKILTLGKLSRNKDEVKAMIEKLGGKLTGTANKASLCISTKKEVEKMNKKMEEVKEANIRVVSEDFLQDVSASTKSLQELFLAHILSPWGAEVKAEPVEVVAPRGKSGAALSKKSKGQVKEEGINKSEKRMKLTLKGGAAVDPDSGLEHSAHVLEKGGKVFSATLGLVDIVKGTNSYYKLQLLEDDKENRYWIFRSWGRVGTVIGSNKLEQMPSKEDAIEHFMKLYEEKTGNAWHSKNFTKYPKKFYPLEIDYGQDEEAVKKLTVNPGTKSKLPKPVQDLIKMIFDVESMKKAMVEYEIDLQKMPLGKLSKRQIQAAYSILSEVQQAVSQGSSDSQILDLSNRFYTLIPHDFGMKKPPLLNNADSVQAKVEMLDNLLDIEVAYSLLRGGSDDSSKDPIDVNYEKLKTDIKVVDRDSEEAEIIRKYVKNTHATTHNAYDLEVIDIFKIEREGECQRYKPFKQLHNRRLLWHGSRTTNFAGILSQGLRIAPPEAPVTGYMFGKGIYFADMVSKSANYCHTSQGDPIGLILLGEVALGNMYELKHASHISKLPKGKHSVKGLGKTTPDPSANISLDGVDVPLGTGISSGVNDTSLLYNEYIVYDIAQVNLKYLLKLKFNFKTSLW

C[C@@H]1CN(c2ncc(C(F)(F)F)cn2)CCN1C(=O)[C@H]1C[C@@H](c2c[nH]c(=O)c(C(F)(F)F)c2)C1 [Example 1, 5-[(1S,3s)-3-{(2R)-2-methyl-4-[5-(trifluoromethyl)pyrimidin-2-yl]piperazine-1-carbonyl}cyclobutyl]-3-(trifluoromethyl)pyridin-2(1H)-one]
pIC50 (PARP1 GST): 5.56 | maximum tumor growth inhibition (TGIMax) (MC-38 (Ker) tumors; Dose A): 46% | maximum tumor growth inhibition (TGIMax) (MC-38 (Ker) tumors; Dose B): 77% | maximum tumor growth inhibition (TGIMax) (MC-38 (Ker) tumors; Dose C): 98% | maximum tumor growth inhibition (TGIMax) (MC-38 (Ker) tumors; Dose D): 99% | induction of IFNβ in plasma (IFNβ; plasma): not in plasma | induction of IFNβ in tumors (IFNβ; tumor fluid): induced IFNβ in MC-38 (Ker) tumors compared to vehicle | TGIMax (NCI-H1373 tumors; Dose A): 26% | TGIMax (NCI-H1373 tumors; Dose B): 46% | TGIMax (NCI-H1373 tumors; Dose C): 73% | TGIMax (NCI-H1373 tumors; Dose D): 92%
